Earlier results in patent US10519176B2, “Crystalline forms” (GRUNENTHAL GMBH, priority 2010, dated 2019).

How the values were obtained:
[1] = in vivo
[2] = according to FDA SBA
[3] = according to FDA SBA; remark: listed apart in the source

For `O=P(O)(O)C(O)(Cn1ccnc1)P(=O)(O)O` [Zoledronic acid, (1-hydroxy-2-imidazol-1-yl-1-phosphono-ethyl)phosphonic acid], the “gastric and intestinal irritations” value [1] is listed as “severe gastric and intestinal irritations”, the oral bioavailability [2] is listed as “approximately 1%” and the “solubility in 0.1 N HCl solution” value (0.1 N HCl solution) is listed as “sparingly soluble”. For the same molecule, the “solubility in 0.1 N NaOH” value (0.1 N NaOH) was “freely soluble”, the “solubility in various organic solvents” value (various organic solvents) was “practically insoluble” and the solubility in water (water) was “sparingly soluble”. The “permeability in the GI tract” value [3] was “poor permeability”.
